Patent publication US6630500B2, “Selected fused pyrrolocarbazoles” (Cephalon, Inc., priority 2000, dated 2003)

Experiments:
Format in all cases: biochemical
[1] = molecular target: T1, VEGF receptor (human flk-1, KDR, VEGFR2) kinase domain (Homo sapiens, UniProt P35968); experiment: Inhibition of VEGF receptor kinase activity (ELISA); conditions: 40 μM ATP; for IC50: values without % sign
T1 construct: VEGF receptor (human flk-1, KDR, VEGFR2) kinase domain; made in house
Method: Fused pyrrolocarbazole compounds were examined for their inhibitory effects on the kinase activity of baculovirus-expressed VEGF receptor (human flk-1, KDR, VEGFR2) kinase domain using the procedure described for the trkA kinase ELISA assay described below. The kinase reaction mixture, consisting of 50 mM Hepes, pH 7.4, 40 μM ATP, 10 mM MnCl2, 0.1% BSA, 2% DMSO, and various concentrations of inhibitor, was transferred to PLC-γ/GST-coated plates. VEGFR kinase was added and the reaction was allowed to proceed for 15 min. at 37° C. Detection of phosphorylated product was accomplished by addition of anti-phosphotyrosine antibody (UBI). A secondary enzyme-conjugated antibody was delivered to capture the antibody-phosphorylated PLC-γ/GST complex. The activity of the bound enzyme was measured via an amplified detection system (Gibco-BRL). Inhibition data were analyzed using the sigmoidal dose-response (variable slope) equation in GraphPad Prism.
Selected isomeric fused pyrrolocarbazole and isoindolone compounds can be tested for their ability to inhibit the kinase activity of baculovirus-expressed human trkA cytoplasmic domain using an ELISA-based assay as previously described (Angeles et al., Anal. Biochem. 236: 49-55, 1996). Briefly, the 96-well microtiter plate is coated with substrate solution (recombinant human phospholipase C-γl/glutathione S-transferase fusion protein (Rotin et al., EMBO J., 11: 559-567, 1992). Inhibition studies are performed in 100 μl assay mixtures containing 50 mM Hepes, pH 7.4, 40 μM ATP, 10 mM MnCl2, 0.1% BSA, 2% DMSO, and various concentrations of inhibitor. The reaction is initiated by addition of trkA kinase and allowed to proceed for 15 minutes at 37° C. An antibody to phosphotyrosine (UBI) is then added, followed by a secondary enzyme-conjugated antibody, alkaline phosphatase-labelled goat anti-mouse IgG (Bio-Rad). The activity of the bound enzyme is measured via an amplified detection system (Gibco-BRL). Inhibition data are analyzed using the sigmoidal dose-response (variable slope) equation in GraphPad Prism.

MLK1 = molecular target: T2, MLK1 (Homo sapiens, UniProt P80192); experiment: Inhibition of Mixed Lineage Kinase-1 (MLK1) activity; conditions: 60 μM ATP; for IC50: values without % sign
T2 construct: 1 μg/ml of baculoviral GST-MLK1KD; GST (N); made in house
Method: The kinase activity of MLK1 was assessed using the Millipore Multiscreen TCA “in-plate” format as described for protein kinase C (Pitt & Lee, J. Biomol. Screening, 1: 47-51, 1996). Briefly, each 50-μl assay mixture contained 20 mM Hepes, pH 7.2, 5 mM EGTA, 15 mM MgCl2, 25 mM β-glycerophosphate, 60 μM ATP, 0.25 μCi [γ-^32P]ATP, 0.1% BSA, 500 μ/ml myelin basic protein (UBI #13-104), 2% DMSO, […], and 1 μg/ml of baculoviral GST-MLK1KD. Samples were incubated for 15 min at 37° C. The reaction was stopped by adding ice cold 50% TCA and the proteins were allowed to precipitate for 30 min at 4° C. The plates were then washed with ice cold 25% TCA. Supermix scintillation cocktail was added, and the plates were allowed to equilibrate for 1-2 hours prior to counting using the Wallac MicroBeta 1450 PLUS scintillation counter.

MLK2 = molecular target: T3, MLK2 (Homo sapiens, UniProt Q02779); experiment: Inhibition of Mixed Lineage Kinase-2 (MLK2) activity; conditions: 100 μM ATP; for IC50: values without % sign; for inhibition at 0.1 µM: 100 nM compound
T3 construct: fused on or other part: GST tag
Method: (§1) The kinase activity of MLK1 was assessed using the Millipore Multiscreen TCA “in-plate” format as described for protein kinase C (Pitt & Lee, J. Biomol. Screening, 1: 47-51, 1996). Briefly, each 50-μl assay mixture contained 20 mM Hepes, pH 7.2, 5 mM EGTA, 15 mM MgCl2, 25 mM β-glycerophosphate, 60 μM ATP, 0.25 μCi [γ-^32P]ATP, 0.1% BSA, 500 μ/ml myelin basic protein (UBI #13-104), 2% DMSO, 1 μM of test compound, and 1 μg/ml of baculoviral GST-MLK1KD. Samples were incubated for 15 min at 37° C. The reaction was stopped by adding ice cold 50% TCA and the proteins were allowed to precipitate for 30 min at 4° C. The plates were then washed with ice cold 25% TCA. Supermix scintillation cocktail was added, and the plates were allowed to equilibrate for 1-2 hours prior to counting using the Wallac MicroBeta 1450 PLUS scintillation counter.
(§2) Assays were performed using the Millipore Multiscreen plate format as described for MLK1. Each 50-μl assay mixture contained 20 mM Hepes, pH 7.2, 5 mM EGTA, 15 mM MgCl2, 25 mM β-glycerophosphate, 100 μM ATP, 0.25 μCi [γ-^32P]ATP, 0.1% BSA, 500 μg/ml myelin basic protein (UBI #13-104), 2% DMSO, various concentrations of test compound, and 3 μg/ml of baculoviral GST-MLK2KDLZ. Samples were incubated for 15 min. at 37° C. The reaction was stopped by adding ice cold 50% TCA and the proteins were allowed to precipitate for 30 min at 4° C. The plates were then washed with ice cold 25% TCA. Supermix scintillation cocktail was added, and the plates were allowed to equilibrate for 1-2 hours prior to counting.

MLK3 = molecular target: T4, MLK3 (Homo sapiens, UniProt Q16584); experiment: Inhibition of Mixed Lineage Kinase-3 (MLK3) activity; conditions: 100 μM ATP; for IC50: values without % sign
T4 construct: 2 μg/ml of baculoviral GST-MLK3KD; GST (N); made in house
Method: as §1
as §2, with “MLK1. Briefly, each” for “MLK1. Each”, “and 2” for “and 3”, “baculoviral GST-MLK3KD. Sample” for “baculoviral GST-MLK2KDLZ. Samples”, “15 min” for “15 min.”

T4 sequence (Q16584 117-379 limits assumed, species assumed): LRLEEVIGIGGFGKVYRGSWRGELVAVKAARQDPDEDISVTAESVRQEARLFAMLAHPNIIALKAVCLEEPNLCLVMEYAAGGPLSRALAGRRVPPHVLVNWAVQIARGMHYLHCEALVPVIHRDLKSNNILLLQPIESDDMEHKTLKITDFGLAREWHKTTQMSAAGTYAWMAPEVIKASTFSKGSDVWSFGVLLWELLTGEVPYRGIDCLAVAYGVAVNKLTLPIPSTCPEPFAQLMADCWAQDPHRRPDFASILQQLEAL
T2 sequence (P80192 144-412 limits assumed, species assumed): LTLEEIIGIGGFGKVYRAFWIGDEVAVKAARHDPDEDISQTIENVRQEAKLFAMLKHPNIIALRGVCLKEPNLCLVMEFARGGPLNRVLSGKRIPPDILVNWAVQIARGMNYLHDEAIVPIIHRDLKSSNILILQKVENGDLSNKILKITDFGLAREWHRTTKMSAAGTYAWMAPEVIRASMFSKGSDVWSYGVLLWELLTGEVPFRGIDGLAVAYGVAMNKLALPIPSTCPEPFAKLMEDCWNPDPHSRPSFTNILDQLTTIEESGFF
T3 sequence (Q02779 98-440 limits assumed): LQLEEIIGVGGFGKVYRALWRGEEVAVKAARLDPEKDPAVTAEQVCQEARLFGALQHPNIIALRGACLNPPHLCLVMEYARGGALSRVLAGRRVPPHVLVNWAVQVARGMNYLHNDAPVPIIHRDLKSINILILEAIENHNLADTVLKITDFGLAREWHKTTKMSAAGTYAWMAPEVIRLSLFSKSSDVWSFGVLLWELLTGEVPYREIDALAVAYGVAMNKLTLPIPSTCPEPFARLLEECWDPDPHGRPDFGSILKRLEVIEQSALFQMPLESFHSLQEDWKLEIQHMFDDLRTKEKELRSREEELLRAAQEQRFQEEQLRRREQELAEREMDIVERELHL
T1 sequence (P35968 834-1162 limits assumed): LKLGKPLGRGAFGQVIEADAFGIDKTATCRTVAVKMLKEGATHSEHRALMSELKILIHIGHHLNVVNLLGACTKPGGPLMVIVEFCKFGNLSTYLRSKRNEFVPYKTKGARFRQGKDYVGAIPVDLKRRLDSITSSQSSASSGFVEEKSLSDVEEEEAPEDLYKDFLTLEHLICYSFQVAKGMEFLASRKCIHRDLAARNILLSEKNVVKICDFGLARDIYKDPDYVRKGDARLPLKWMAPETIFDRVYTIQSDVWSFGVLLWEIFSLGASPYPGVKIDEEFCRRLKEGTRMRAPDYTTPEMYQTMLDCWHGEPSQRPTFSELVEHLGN

| SMILES | IC50 [1] [nM] | IC50 (MLK1) [nM] | IC50 (MLK2) [nM] | IC50 (MLK3) [nM] | inhibition at 0.1 µM (MLK2) [%] | inhibition at 0.3 µM ([1]; 300 nM compound, read-out: VEGFR2 % inh. @ 300 nM) [%] | inhibition at 0.1 µM (MLK1; 100 nM compound) [%] | inhibition at 0.1 µM (MLK3; 100 nM compound) [%] |
| --- | --- | --- | --- | --- | --- | --- | --- | --- |
| CCOC(C)c1ccc2c(c1)c1c3c(c4c(c1n2CCCO)Cc1ccccc1-4)C(=O)NC3 (single isomer, unassigned) [Compound 12] | 240 | 28 | 131 | 16 |  |  |  |  |
| O=C1NCc2c1c1c(c3c2c2ccccc2n3CCO)Cc2ccccc2-1 [A, reference compound] | 107 | 22 |  | 8 | 39 |  |  |  |
| CC(C)CC(N)C(=O)OCCCn1c2ccccc2c2c3c(c4c(c21)Cc1ccccc1-4)C(=O)NC3 (centres unmarked) [C, reference compound] |  |  |  |  | 0 | 17 | 8 | 30 |
| CC[C@@H](C)OCc1ccc2c(c1)c1c3c(c4c(c1n2CCCO)Cc1ccccc1-4)C(=O)NC3 [Compound 5] | 12 | 27 |  | 16 | 45 |  |  |  |
| CC[C@H](C)OCc1ccc2c(c1)c1c3c(c4c(c1n2CCCO)Cc1ccccc1-4)C(=O)NC3 [Compound 6] | 19 | 38 |  | 19 | 51 |  |  |  |
| CCCOCc1ccc2c(c1)c1c3c(c4c(c1n2CCCO)Cc1ccccc1-4)C(=O)NC3 [Compound 8] | 13 | 19 |  | 13 | 76 |  |  |  |
| COC(C)c1ccc2c(c1)c1c3c(c4c(c1n2CCCO)Cc1ccccc1-4)C(=O)NC3 (centres unmarked) [Compound 13] | 73 | 20 |  | 26 | 62 |  |  |  |

Further lines, results first:

| IC50 [1] [nM] | IC50 (MLK1) [nM] | IC50 (MLK2) [nM] | IC50 (MLK3) [nM] | inhibition at 0.1 µM (MLK2) [%] | inhibition at 0.3 µM ([1]; 300 nM compound, read-out: VEGFR2 % inh. @ 300 nM) [%] | inhibition at 0.1 µM (MLK1; 100 nM compound) [%] | inhibition at 0.1 µM (MLK3; 100 nM compound) [%] | SMILES |
| --- | --- | --- | --- | --- | --- | --- | --- | --- |
| 31 | 42 | 229 | 32 |  |  |  |  | CC(C)OCc1ccc2c(c1)c1c3c(c4c(c1n2CCCOC(=O)CCN)Cc1ccccc1-4)C(=O)NC3 [Compound 20] |
| 18 | 74 | 170 | 28 |  |  |  |  | CC(C)OCc1ccc2c(c1)c1c3c(c4c(c1n2CCCOC(=O)CN(C)C)Cc1ccccc1-4)C(=O)NC3 [Compound 22] |
| 208 | 9 |  | 5 | 64 |  |  |  | O=C1NCc2c1c1c(c3c2c2cc(CO)ccc2n3CCCO)Cc2ccccc2-1 [Compound 29] |
| 16 | 21 | 86 |  |  |  |  |  | CC(C)OCc1ccc2c(c1)c1c3c(c4c(c1n2CCCO)C(CO)c1ccccc1-4)C(=O)NC3 (centres unmarked) [Compound 40] |
| 48 | 31 |  | 17 | 46 |  |  |  | O=C1NCc2c1c1c(c3c2c2ccccc2n3CCCO)Cc2ccccc2-1 [Compound B, reference compound] |
